Laboratory results published in patent publication EP2891491A1, “Use of (r)-phenylpiracetam for the treatment of sleep disorders” (Merz Pharma GmbH & Co. KGaA, priority 2014, dated 2015).

Tests used:
[1] = brain microdialysis: concentration of (R)-phenylpiracetam in the brain after i.p. application; type: in vivo, rats; conditions: rat
Experimental: EXAMPLE 3: Assessment of the concentration of (R)-phenylpiracetam in the brain using brain microdialysis - Figs. 2, 14, 15
Naive adult male Sprague-Dawley rats (240-360 g, Janvier, France) were used for the study kept under standard conditions. All experiments were conducted during the light period of the day-night cycle.
Siliconized guide cannula (MAB 6.14.IC) (MAB, Stockhom, Sweden) were implanted unilaterally in pentobarbital anaesthetized animals aiming at the caudatus putamen (CPu; AP: +0.1, LM: ± 2.6, DV: -3.2 mm relative to bregma; -3.3 mm interaural) according to the atlas of Paxinos and Watson (loc. cit.). Rats were given at least 3 days to recover from surgery before starting microdialysis experiments.
Microdialysis experiments were performed in the home cage of the animal. A microdialysis probe (MAB 6.14.4.; 4 mm exposed membrane length, polyethersulfone (PES) membrane; MAB, Stockholm, Sweden) was lowered through the guide cannula into the CPu (ventral position of probe tip with reference to the skull: -7.2 mm) ca. 12 hours before the sampling and left in place for the whole testing period.
The probes were perfused with aCSF at a flow rate of 2 µl/min using a CMA 102 perfusion pump (CMA, Solna, Sweden). The composition of the aCSF was 147 mM Na^+, 2.7 mM K^+, 1.2 mM Ca^2+, 0.85 mM Mg^2+, 0.04 mM ascorbic acid. […]

[2] = tested on: extracellular dopamine levels in rat striatum; experiment: brain microdialysis: extracellular dopamine levels in rat striatum; type: in vivo, rats; conditions: 100 mg/kg i.p.
Experimental: EXAMPLE 2: Assessment of (R)-phenylpiracetam on extracellular dopamine levels in rat striatum using brain microdialysis - Fig. 1
(R)-Phenylpiracetam was dissolved in saline and injected intraperitoneally (i.p).
Adult male Sprague-Dawley rats (n = 5, ∼300 g; Harlan, The Netherlands) were used for the experiments. After surgery animals were housed individually (cages 30 cm x 30 cm x 40 cm) with food and water was ad libitum available at standard conditions. The post-surgery interval for recovery was minimally 48 h.
Rats were anesthetized using isoflurane (2%, 800 ml/min O2), and placed in a stereotaxic frame (Kopf instruments, USA). […]
Concentrations of DA and DOPAC were determined in the same sample, by HPLC separation and electrochemical detection. DA and DOPAC were detected electrochemically using a potentiostate (Antec Leyden, model Intro, the Netherlands) fitted with a glassy carbon electrode set at +500 mV vs. Ag/AgCl (Antec Leyden, the Netherlands). Data was analyzed by Chromatography Data System (Shimadzu, class-vp, Japan) software. Concentrations were quantified by the external standard method.
After transmitter levels were stabilized, four consecutive pre-treatment microdialysis samples with less than 50% variation were taken as baseline and their mean was set at 100%. […] Transmitter concentration in each fraction was expressed as % ± SEM (standard error mean) of baseline.

NC(=O)CN1C[C@@H](c2ccccc2)CC1=O [(R)-phenylpiracetam]
free concentration in extracellular fluid in the brain ([1]; 50 mg/kg): 20 µM
free concentration in extracellular fluid in the brain ([1]; 100 mg/kg): 50 µM
concentration of dopamine in the striatum [2]: increases extracellular dopamine levels
